# Experimental data published in patent US20220226299A1 (NIPPON CHEMIPHAR CO., LTD., priority 2019, published 2022).
# Key:
# [1] = target: T1, human Cav3.2 channels (Homo sapiens, UniProt O95180); experiment: T-type calcium blocking action: intracellular calcium (Fluo-4 AM fluorescence) in HEK293 cells steadily expressing human Cav3.2 channels; format: cell-based; conditions: HEK293 cells expressing human Cav3.2; KCl-stimulated calcium influx, Fluo-4 fluorescence; Tables 1 to 3
# T1 construct: human Cav3.2 channel ORF (Open Reading Frame) gene; expressed in transfected cells; host or cells: HEK293 cells (ATCC No. CRL-1573), pcDNA3.1(+) plasmid
# Procedure, shortened: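 Fluo-4 AM-loaded stable HEK293 cells were preincubated 15 min at RT with compound (0.1% DMSO final) in choline-based buffer (pH 7.3). Gramicidin was added, then KCl-induced calcium influx was read at 485/510 nm for 10 s. Percent block came from peak rise over baseline, and IC50 from log-concentration plots.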
# [2] = target: T2, Cav3.1 channel (Homo sapiens, UniProt O43497); experiment: Cav3.1 channel blocking action, as the Cav3.2 test but with the Cav3.1 channel ORF gene and 1.0 mM CaCl2 in the buffers; format: cell-based; conditions: Cav3.1 channel ORF gene; CaCl2 1.0 mM in buffer A and buffer B
# T2 construct: replaced with a Cav3.1 channel ORF gene; expressed in transfected cells
# T2 sequence (O43497 whole entry): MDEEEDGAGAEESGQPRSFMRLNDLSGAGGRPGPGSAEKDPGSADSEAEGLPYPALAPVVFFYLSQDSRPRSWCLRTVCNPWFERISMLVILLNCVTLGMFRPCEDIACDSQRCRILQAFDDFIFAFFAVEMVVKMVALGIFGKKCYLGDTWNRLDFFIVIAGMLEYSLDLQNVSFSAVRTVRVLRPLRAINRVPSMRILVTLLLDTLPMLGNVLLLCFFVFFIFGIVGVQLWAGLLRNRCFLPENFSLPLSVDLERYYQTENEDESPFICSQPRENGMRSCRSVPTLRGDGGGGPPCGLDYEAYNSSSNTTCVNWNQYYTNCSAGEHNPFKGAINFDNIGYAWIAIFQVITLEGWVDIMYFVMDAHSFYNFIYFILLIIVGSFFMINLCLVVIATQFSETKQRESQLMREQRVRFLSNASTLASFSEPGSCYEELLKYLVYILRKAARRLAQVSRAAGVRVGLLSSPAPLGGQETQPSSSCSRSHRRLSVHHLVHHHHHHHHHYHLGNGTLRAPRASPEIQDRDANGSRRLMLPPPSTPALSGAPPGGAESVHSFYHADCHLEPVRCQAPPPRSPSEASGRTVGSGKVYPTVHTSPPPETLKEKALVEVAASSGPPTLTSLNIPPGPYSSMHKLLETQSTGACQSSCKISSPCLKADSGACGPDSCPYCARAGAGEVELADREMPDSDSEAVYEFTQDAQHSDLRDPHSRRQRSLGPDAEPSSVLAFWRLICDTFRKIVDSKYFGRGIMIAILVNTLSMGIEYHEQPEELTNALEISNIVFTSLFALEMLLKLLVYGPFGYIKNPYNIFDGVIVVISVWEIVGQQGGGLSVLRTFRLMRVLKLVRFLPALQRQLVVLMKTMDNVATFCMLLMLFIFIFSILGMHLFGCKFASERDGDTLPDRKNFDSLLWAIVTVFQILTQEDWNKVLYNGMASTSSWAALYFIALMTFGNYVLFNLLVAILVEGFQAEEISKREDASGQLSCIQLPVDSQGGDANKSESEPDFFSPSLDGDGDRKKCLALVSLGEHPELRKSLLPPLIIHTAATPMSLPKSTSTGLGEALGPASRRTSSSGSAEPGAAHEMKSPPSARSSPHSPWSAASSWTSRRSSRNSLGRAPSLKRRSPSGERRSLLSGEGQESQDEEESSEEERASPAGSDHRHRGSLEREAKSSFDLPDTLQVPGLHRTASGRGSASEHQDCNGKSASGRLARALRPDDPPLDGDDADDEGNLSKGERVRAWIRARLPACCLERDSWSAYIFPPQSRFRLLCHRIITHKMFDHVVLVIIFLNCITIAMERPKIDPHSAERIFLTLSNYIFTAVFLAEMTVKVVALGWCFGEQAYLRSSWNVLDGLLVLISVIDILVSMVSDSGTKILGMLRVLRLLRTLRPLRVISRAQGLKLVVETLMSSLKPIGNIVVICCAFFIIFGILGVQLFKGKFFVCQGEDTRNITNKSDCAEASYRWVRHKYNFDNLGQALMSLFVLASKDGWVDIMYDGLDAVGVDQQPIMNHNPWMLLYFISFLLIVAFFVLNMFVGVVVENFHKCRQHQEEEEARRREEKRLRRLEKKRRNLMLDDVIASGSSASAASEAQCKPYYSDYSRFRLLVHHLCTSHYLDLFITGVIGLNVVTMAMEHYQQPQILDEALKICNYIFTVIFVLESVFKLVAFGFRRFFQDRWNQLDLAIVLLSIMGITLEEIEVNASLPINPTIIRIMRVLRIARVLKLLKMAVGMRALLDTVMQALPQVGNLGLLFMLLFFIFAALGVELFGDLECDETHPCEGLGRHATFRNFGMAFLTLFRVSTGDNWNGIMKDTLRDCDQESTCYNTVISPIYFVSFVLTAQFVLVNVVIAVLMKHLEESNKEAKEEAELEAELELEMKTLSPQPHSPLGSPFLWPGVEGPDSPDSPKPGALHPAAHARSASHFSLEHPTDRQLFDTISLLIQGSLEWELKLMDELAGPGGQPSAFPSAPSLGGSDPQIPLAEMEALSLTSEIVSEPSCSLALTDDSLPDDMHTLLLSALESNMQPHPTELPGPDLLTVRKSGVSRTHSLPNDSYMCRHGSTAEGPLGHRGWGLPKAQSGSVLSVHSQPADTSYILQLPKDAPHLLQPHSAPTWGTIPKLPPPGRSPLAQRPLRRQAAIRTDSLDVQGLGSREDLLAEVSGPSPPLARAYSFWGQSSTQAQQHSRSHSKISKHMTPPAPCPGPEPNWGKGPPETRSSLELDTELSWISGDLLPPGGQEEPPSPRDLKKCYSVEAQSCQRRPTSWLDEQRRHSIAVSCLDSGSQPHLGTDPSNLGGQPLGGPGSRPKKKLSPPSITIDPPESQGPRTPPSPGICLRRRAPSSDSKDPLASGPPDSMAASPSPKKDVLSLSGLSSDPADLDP
# T1 sequence (O95180 whole entry): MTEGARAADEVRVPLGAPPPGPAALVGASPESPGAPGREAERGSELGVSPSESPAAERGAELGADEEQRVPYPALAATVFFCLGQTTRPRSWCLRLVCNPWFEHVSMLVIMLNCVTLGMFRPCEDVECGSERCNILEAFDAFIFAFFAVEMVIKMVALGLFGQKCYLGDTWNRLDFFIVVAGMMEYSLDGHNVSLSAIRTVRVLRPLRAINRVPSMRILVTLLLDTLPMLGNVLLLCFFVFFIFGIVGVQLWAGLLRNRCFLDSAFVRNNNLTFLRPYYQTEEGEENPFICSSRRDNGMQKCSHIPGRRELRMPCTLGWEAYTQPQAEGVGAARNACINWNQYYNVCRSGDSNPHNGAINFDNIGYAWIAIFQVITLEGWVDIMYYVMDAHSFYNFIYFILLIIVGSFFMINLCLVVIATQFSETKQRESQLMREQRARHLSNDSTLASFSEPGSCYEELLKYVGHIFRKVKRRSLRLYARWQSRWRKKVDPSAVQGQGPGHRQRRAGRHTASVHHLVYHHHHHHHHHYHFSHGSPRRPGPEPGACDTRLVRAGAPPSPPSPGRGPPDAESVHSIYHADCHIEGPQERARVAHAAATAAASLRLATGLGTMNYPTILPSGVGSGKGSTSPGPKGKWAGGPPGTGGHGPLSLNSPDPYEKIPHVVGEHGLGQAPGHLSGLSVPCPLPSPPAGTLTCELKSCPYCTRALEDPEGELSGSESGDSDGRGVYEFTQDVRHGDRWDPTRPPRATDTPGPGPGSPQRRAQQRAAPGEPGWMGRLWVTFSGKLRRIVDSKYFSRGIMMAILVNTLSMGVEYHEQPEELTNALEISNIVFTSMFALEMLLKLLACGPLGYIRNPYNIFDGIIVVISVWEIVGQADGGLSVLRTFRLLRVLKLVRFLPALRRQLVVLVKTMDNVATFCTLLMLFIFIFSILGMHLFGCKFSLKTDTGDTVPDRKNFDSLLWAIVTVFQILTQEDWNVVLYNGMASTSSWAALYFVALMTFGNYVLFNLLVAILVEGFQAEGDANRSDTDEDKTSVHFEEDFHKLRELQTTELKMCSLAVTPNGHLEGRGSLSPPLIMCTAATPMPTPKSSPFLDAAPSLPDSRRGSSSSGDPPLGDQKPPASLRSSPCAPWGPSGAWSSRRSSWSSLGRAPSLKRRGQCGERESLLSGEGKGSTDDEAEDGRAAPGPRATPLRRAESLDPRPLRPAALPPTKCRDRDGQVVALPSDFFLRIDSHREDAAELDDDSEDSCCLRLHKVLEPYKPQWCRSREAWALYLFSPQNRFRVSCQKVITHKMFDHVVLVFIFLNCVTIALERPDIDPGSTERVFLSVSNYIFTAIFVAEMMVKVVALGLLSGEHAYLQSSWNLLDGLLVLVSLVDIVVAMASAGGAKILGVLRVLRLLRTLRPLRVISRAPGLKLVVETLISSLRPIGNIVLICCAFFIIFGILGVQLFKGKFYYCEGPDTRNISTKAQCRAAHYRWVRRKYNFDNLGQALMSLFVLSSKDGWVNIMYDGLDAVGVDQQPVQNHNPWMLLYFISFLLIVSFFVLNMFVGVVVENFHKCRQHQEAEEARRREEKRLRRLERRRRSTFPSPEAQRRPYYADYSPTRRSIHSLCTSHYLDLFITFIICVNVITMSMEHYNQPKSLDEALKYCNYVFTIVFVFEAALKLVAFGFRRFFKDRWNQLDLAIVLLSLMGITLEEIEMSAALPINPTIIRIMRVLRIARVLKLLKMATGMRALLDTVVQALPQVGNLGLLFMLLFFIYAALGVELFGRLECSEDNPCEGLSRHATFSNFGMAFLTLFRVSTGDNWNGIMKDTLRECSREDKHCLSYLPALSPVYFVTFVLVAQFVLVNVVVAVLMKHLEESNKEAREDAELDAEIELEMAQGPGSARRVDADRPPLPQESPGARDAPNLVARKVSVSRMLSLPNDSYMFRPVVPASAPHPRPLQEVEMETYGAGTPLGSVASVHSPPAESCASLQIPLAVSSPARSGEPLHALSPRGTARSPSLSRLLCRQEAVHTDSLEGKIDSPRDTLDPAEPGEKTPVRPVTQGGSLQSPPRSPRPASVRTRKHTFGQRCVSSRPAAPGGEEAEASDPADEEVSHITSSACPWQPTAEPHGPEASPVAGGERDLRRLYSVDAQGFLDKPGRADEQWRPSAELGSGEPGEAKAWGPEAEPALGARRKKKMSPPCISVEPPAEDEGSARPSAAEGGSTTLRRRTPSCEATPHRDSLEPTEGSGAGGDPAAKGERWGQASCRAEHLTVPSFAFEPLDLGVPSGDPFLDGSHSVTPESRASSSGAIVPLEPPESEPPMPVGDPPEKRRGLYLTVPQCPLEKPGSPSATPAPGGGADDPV
Compound,IC50 [1] [nM],IC50 [2] [nM]
"Cn1ncc2cc(CC(=O)N[C@@H]3CCN(c4ccc(C(F)(F)F)nc4)C3)ccc21 [Example 144, (R)-2-(1-methyl-1H-indazol-5-yl)-N-(1-(6-(trifluoromethyl)pyridin-3-yl)pyrrolidin-3-yl)acetamide]",22,470
"O=C(Cc1ccc(C(F)(F)F)cc1)N[C@@H]1CCN(c2cncc(C(F)(F)F)n2)C1 [Example 11, (R)-2-(4-(trifluoromethyl)phenyl)-N-(1-(6-(trifluoromethyl)pyrazin-2-yl)pyrrolidin-3-yl)acetamide]",180,–
"CC(=O)N1CCN(c2ccc(CC(=O)N[C@@H]3CCN(c4cncc(C(F)(F)F)c4)C3)cc2)CC1 [Example 95, (R)-2-(4-(4-acetylpiperazin-1-yl)phenyl)-N-(1-(5-(trifluoromethyl)pyridin-3-yl)pyrrolidin-3-yl)acetamide]",230,–
"CN1CCN(c2ccc(CC(=O)N[C@@H]3CCN(c4cncc(C(F)(F)F)c4)C3)cc2)CC1 [Example 93, (R)-2-(4-(4-methylpiperazin-1-yl)phenyl)-N-(1-(5-(trifluoromethyl)pyridin-3-yl)pyrrolidin-3-yl)acetamide]",340,–
"O=C(Cc1ccc(N2CCOCC2)cc1)N[C@@H]1CCN(c2ccc(C(F)(F)F)nc2)C1 [Example 42, (R)-2-(4-morpholinophenyl)-N-(1-(6-(trifluoromethyl)pyridin-3-yl)pyrrolidin-3-yl)acetamide]",250,–
"CCOC(=O)C(C)(C)Oc1cccc(N2CC[C@@H](NC(=O)Cc3ccc(C4CC4)cc3)C2)c1 [Example 177, Ethyl (R)-2-(3-(3-(2-(4-cyclopropylphenyl)acetamido)pyrrolidin-1-yl)phenoxy)-2-methylpropanoate]",300,–
"O=C(Cc1ccc2ocnc2c1)N[C@@H]1CCN(c2cncc(C(F)(F)F)c2)C1 [Example 152, (R)-2-(benzo[d]oxazol-5-yl)-N-(1-(5-(trifluoromethyl)pyridin-3-yl)pyrrolidin-3-yl)acetamide]",1300,–
"[2H]C([2H])(C(=O)N[C@@H]1CCN(c2cncc(C(F)(F)F)c2)C1)c1ccc(C(F)(F)F)cc1 [Example 83, (R)-2-(4-(trifluoromethyl)phenyl)-N-(1-(5-(trifluoromethyl)pyridin-3-yl)pyrrolidin-3-yl)acetamide-2,2-d2]",82,–
"O=C(Cc1ccc(C(F)(F)F)cn1)N[C@@H]1CCN(c2cncc(C(F)(F)F)c2)C1 [Example 2, (R)-2-(5-(trifluoromethyl)pyridin-2-yl)-N-(1-(5-(trifluoromethyl)pyridin-3-yl)pyrrolidin-3-yl)acetamide]",1300,–
"O=C(Cc1ccc2[nH]nnc2c1)N[C@@H]1CCN(c2cncc(C(F)(F)F)c2)C1 [Example 163, (R)-2-(1H-benzo[d][1,2,3]triazol-5-yl)-N-(1-(5-(trifluoromethyl)pyridin-3-yl)pyrrolidin-3-yl)acetamide]",1400,–
"O=C(Cc1ccc(N2CCCCC2=O)cc1)N[C@@H]1CCN(c2cncc(C(F)(F)F)c2)C1 [Example 96, (R)-2-(4-(2-oxopiperidin-1-yl)phenyl)-N-(1-(5-(trifluoromethyl)pyridin-3-yl)pyrrolidin-3-yl)acetamide]",410,–
"O=C(Cc1ccc([N+](=O)[O-])cc1)N[C@@H]1CCN(c2cncc(C(F)(F)F)c2)C1 [Example 30, (R)-2-(4-nitrophenyl)-N-(1-(5-(trifluoromethyl)pyridin-3-yl)pyrrolidin-3-yl)acetamide]",650,–
"O=C(Cc1ccc2cc[nH]c2c1)NC1CN(c2cncc(C(F)(F)F)c2)C1 [Example 90, 2-(1H-indol-6-yl)-N-(1-(5-(trifluoromethyl)pyridin-3-yl)azetidin-3-yl)acetamide]",130,–
"O=C(Cc1ccc2[nH]ncc2c1)N[C@@H]1CCN(c2cncc(C(F)(F)F)c2)C1 [Example 159, (R)-2-(1H-indazol-5-yl)-N-(1-(5-(trifluoromethyl)pyridin-3-yl)pyrrolidin-3-yl)acetamide]",510,–
"O=C(Cc1ccc(OC(F)(F)F)cc1)N[C@@H]1CCN(c2cncc(C(F)(F)F)c2)C1 [Example 115, (R)-2-(4-(trifluoromethoxy)phenyl)-N-(1-(5-(trifluoromethyl)pyridin-3-yl)pyrrolidin-3-yl)acetamide]",91,–
"O=C(Cc1ccc(N2CCS(=O)(=O)CC2)cc1)N[C@@H]1CCN(c2cncc(C(F)(F)F)c2)C1 [Example 23, (R)-2-(4-(1,1-dioxidethiomorpholino)phenyl)-N-(1-(5-(trifluoromethyl)pyridin-3-yl)pyrrolidin-3-yl)acetamide]",150,–
"CC(C)c1ccc(CC(=O)N[C@@H]2CCN(c3nc(C(F)(F)F)cs3)C2)cc1 [Example 112, (R)-2-(4-isopropylphenyl)-N-(1-(4-(trifluoromethyl)thiazol-2-yl)pyrrolidin-3-yl)acetamide]",110,–
"O=C(Cc1ccc(C(F)(F)F)cc1C(F)(F)F)N[C@@H]1CCN(c2cncc(C(F)(F)F)c2)C1 [Example 140, (R)-2-(2,4-bis(trifluoromethyl)phenyl)-N-(1-(5-(trifluoromethyl)pyridin-3-yl)pyrrolidin-3-yl)acetamide]",1100,–
"C[C@@H]1CN(c2ccc(CC(=O)N[C@@H]3CCN(c4cncc(C(F)(F)F)c4)C3)cc2)C[C@H](C)O1 [Example 86, 2-(4-((2R,6S)-2,6-dimethylmorpholino)phenyl)-N—((R)-1-(5-(trifluoromethyl)pyridin-3-yl)pyrrolidin-3-yl) acetamide]",370,–
"Cc1nc2cc(CC(=O)N[C@@H]3CCN(c4ccc(C(F)(F)F)nc4)C3)ccc2o1 [Example 154, (R)-2-(2-methylbenzo[d]oxazol-5-yl)-N-(1-(6-(trifluoromethyl)pyridin-3-yl)pyrrolidin-3-yl)acetamide]",1000,–
"NC(C(=O)N[C@@H]1CCN(c2cncc(C(F)(F)F)c2)C1)c1ccc(C2CC2)cc1 (single isomer, unassigned) [Example 137B]",820,–
